In PubChem BioAssay (NCI):
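Five concentrations, 48 hours, 96-well plates. Abbreviation: GI50, concentration required for 50% inhibition of growth. TGI marks complete inhibition of growth.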

How the values were obtained:
Assay in all cases: inhibition of tumour cell growth, NCI panel, 48 h
SK-MEL-2 melanoma = system: SK-MEL-2 melanoma
MDA-N = system: MDA-N
OVCAR-3 ovarian = system: OVCAR-3 ovarian
SR leukemia = system: SR leukemia
HCT-116 colon = system: HCT-116 colon
BT-549 breast = system: BT-549 breast
KM12 colon = system: KM12 colon
SNB-19 CNS = system: SNB-19 CNS
M14 melanoma = system: M14 melanoma
HS 578T breast = system: HS 578T breast

Structure (SMILES) | TGI (SK-MEL-2 melanoma) [µM] | TGI (MDA-N) [µM] | TGI (OVCAR-3 ovarian) [µM] | TGI (SR leukemia) [µM] | TGI (HCT-116 colon) [µM] | TGI (BT-549 breast) [µM] | TGI (KM12 colon) [µM] | TGI (SNB-19 CNS) [µM] | TGI (M14 melanoma) [µM] | TGI (HS 578T breast) [µM] | GI50 (SK-MEL-2 melanoma) [µM] | GI50 (HS 578T breast) [µM] | GI50 (OVCAR-3 ovarian) [µM] | GI50 (HCT-116 colon) [µM] | GI50 (BT-549 breast) [µM] | GI50 (KM12 colon) [µM] | GI50 (SNB-19 CNS) [µM]
COc1ccc(Nc2ccc3ccccc3c2-c2c(O)ccc3ccccc23)cc1 | 28.3 | 29.4 | 27.7 | 30.6 | 40.5 | 52 | 29.5 | 37.2 | – | – | – | – | – | – | – | – | –
COc1cccc(N[C@@H]2c3cc4c(cc3C(c3cc(OC)c(O)c(OC)c3)[C@H]3C(=O)OCC32)OCO4)c1 (stereo partly specified) | 11.2 | – | 68.6 | – | 18.7 | – | 7.06 | 27.7 | – | – | – | – | – | – | – | – | –
Nc1nc(Cl)cc(NC23CC4CC(CC(C4)C2)C3)n1 | 71.4 | > 100 | > 100 | > 100 | > 100 | > 100 | > 100 | > 100 | > 100 | – | – | – | – | – | – | – | –
Cc1cc(=O)[nH]c(NN2C(Cl)C(=O)C2c2ccc([N+](=O)[O-])cc2)n1 (stereo unspecified) | 19.6 | – | 20.6 | 34.5 | 22.3 | – | – | > 100 | 23 | – | – | – | – | – | – | – | –
C/C(=N\Nc1nc2ccccc2n1C)c1cc2ccccc2cn1 | – | 16.6 | – | > 100 | 5.83 | 13.8 | 16.9 | 14.6 | 2.81 | 15.1 | – | – | – | – | – | – | –
O=c1oc(C(C(F)(F)F)C(F)(F)F)nc2ccccc12 | > 100 | – | > 100 | > 100 | > 100 | – | – | > 100 | > 100 | – | – | – | – | – | – | – | –
Cn1c(=O)oc2nc(-c3ccccc3)cc(C(F)(F)F)c21 | > 100 | > 100 | > 100 | > 100 | > 100 | > 100 | > 100 | > 100 | > 100 | – | – | – | – | – | – | – | –
O=c1[nH]n(Cc2ccccc2)c2ccc([N+](=O)[O-])cc12 | > 100 | 99.6 | > 100 | > 100 | > 100 | – | > 100 | > 100 | > 100 | > 100 | – | – | – | – | – | – | –
Cc1nnc2n1N=C(c1ccc(Cl)cc1Cl)/C(=C/c1ccc(-c3ccc([N+](=O)[O-])cc3Cl)o1)S2 | > 100 | – | 34 | – | 24.8 | 43.3 | > 100 | > 100 | – | 50.7 | 32.8 | 20.2 | 14.4 | 12.3 | 22.1 | 32.4 | > 100
Cc1ccccc1N=C(N)Nc1ccccc1C | > 100 | > 100 | > 100 | – | > 100 | – | > 100 | > 100 | > 100 | > 100 | – | – | – | – | – | – | –
COc1ccc2cc(CNCCCCCCNCc3ccc4cc(OC)ccc4c3)ccc2c1 | 2.64 | 0.36 | 1.17 | – | 0.324 | 3.14 | 0.511 | 1.87 | 0.315 | 3.62 | – | – | – | – | – | – | –
CCCCCCCCCCCCCCCCCCNc1nc(=O)n(C2CC(O)C(COP(=O)(O)O)O2)cc1F (stereo unspecified) | > 100 | > 100 | > 100 | – | > 100 | > 100 | > 100 | > 100 | > 100 | > 100 | – | – | – | – | – | – | –
CCOP(=O)(O)CN1CCNCCN(CP(=O)(O)OCC)CCNCC1 | > 100 | > 100 | > 100 | – | > 100 | > 100 | > 100 | > 100 | – | > 100 | – | – | – | – | – | – | –
CN=C(/N=c1\ssc(=NC)n1C)N(C)C | – | – | > 100 | > 100 | – | – | > 100 | > 100 | > 100 | – | – | – | – | – | – | – | –
C=CCP(=O)(CC=C)C(Cl)Cl | > 100 | > 100 | > 100 | > 100 | > 100 | – | – | > 100 | > 100 | > 100 | – | – | – | – | – | – | –
CC(=O)Nc1ccc(OC/C(N)=N/NC(=O)c2ccncc2)cc1 | > 100 | > 100 | > 100 | – | > 100 | > 100 | > 100 | > 100 | > 100 | > 100 | – | – | – | – | – | – | –
CN(C)Cc1cc(C(=O)/C=C/c2ccccc2)cc(CN(C)C)c1O | – | 35.7 | 99.1 | 59.1 | 87.8 | 42.7 | 33.8 | > 100 | 63.1 | > 100 | – | – | – | – | – | – | –
CN(C)/N=N/c1nc2c(c(=O)n(C)c(=O)n2C)n1CC(O)CO (stereo unspecified) | > 100 | > 100 | > 100 | – | > 100 | > 100 | > 100 | > 100 | > 100 | > 100 | – | – | – | – | – | – | –
C=C=C(CC(CC(=C)Br)(C(=O)OC)C(=O)OC)S(=O)(=O)c1ccccc1 | 8.22 | 8.58 | 4.98 | – | 2.22 | 3.18 | 5.81 | 24.9 | 4.3 | 6.37 | – | – | – | – | – | – | –
COc1ccc(OC)c(SC(CC(=O)c2ccccc2)c2ccccc2)c1 (stereo unspecified) | 36.1 | – | 16.4 | > 100 | 11 | – | 15.2 | 27.8 | 31 | 68.3 | – | – | – | – | – | – | –
CCCSc1ccc2[nH]c(N3C(=O)/C(=C/c4ccccc4)N=C3c3ccccc3)cc2c1 | 18 | 20.1 | – | > 50 | > 50 | > 50 | > 50 | > 50 | > 50 | > 50 | – | – | – | – | – | – | –
NCc1cccc(O)c1O | > 100 | – | > 100 | > 100 | > 100 | – | > 100 | > 100 | > 100 | – | – | – | – | – | – | – | –
O=C(Nc1ccccc1C(=O)NCc1ccccc1)/C(=C/c1ccccc1)NC(=O)c1ccccc1 | > 100 | – | > 100 | > 100 | > 100 | > 100 | > 100 | > 100 | > 100 | > 100 | – | – | – | – | – | – | –
Cc1ccccc1-c1nc2c(C(=O)NCCN(C)C)cccc2[nH]1 | > 100 | – | > 100 | – | > 100 | – | > 100 | > 100 | – | – | – | – | – | – | – | – | –
COc1ccc(-c2oc3cc(O)cc(O)c3c(=O)c2OC)cc1 | – | > 100 | 60.9 | > 100 | > 100 | – | – | > 100 | > 100 | – | – | – | – | – | – | – | –
